Laboratory results published in patent publication US8318723B2, “Pyrazine compounds, their use and methods of preparation” (Boehringer Ingelheim International GmbH, priority 2006, dated 2012).

Biological target: PIM-2 (Homo sapiens, UniProt Q9P1W9)
Assay: PIM-2 assay, IC50 determination (luciferase-luciferin ATP depletion, 10-point dose response)
Format: biochemical
Conditions: 10 nM PIM-2, 1 μM ATP, 50 μM peptide substrate, 15 minutes at room temperature

Chain of PIM-2 (Q9P1W9 whole entry): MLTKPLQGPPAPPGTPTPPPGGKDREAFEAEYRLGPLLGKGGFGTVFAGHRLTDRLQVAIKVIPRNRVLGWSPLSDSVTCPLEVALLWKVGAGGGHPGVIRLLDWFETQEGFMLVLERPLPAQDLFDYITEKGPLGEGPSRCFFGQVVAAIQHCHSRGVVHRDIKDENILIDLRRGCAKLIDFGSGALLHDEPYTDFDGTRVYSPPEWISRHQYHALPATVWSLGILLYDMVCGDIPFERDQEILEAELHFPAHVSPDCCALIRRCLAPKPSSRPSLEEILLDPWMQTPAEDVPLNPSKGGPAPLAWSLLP

| IC50 | SMILES |
| --- | --- |
| 0.265 µM | O=C(O)/C=C/c1cccc(-c2cncc(N[C@H]3CC[C@H](O)CC3)n2)c1 [compound 3, (E)-3-{3-[6-(4-Hydroxy-cyclohexylamino)-pyrazin-2-yl]-phenyl}-acrylic acid] |
| 0.057 µM | O=C(O)/C=C/c1cccc(-c2cncc(NCC3CCNCC3)n2)c1 [compound 4, (E)-3-(3-{6-[(Piperidin-4-ylmethyl)-amino]-pyrazin-2-yl}-phenyl)-acrylic acid] |
| 0.022 µM | NCCCCNc1cncc(-c2cccc(/C=C/C(=O)O)c2)n1 [compound 5, (E)-3-{3-[6-(4-Amino-butylamino)-pyrazin-2-yl]-phenyl}-acrylic acid] |
| 0.027 µM | NCCCNc1cncc(-c2cccc(/C=C/C(=O)O)c2)n1 [compound 6, (E)-3-{3-[6-(3-Amino-propylamino)-pyrazin-2-yl]-phenyl}-acrylic acid] |
| 0.027 µM | CC(C)(CN)CNc1cncc(-c2cccc(/C=C/C(=O)O)c2)n1 [compound 7, (E)-3-{3-[6-(3-Amino-2,2-dimethyl-propylamino)-pyrazin-2-yl]-phenyl}-acrylic acid] |
| 0.094 µM | CN(C)CCCNc1cncc(-c2cccc(/C=C/C(=O)O)c2)n1 [compound 8, (E)-3-{3-[6-(3-Dimethylamino-propylamino)-pyrazin-2-yl]-phenyl}-acrylic acid] |
| 0.099 µM | CN(C)CCNc1cncc(-c2cccc(/C=C/C(=O)O)c2)n1 [compound 9, (E)-3-{3-[6-(2-Dimethylamino-ethylamino)-pyrazin-2-yl]-phenyl}-acrylic acid] |
| 0.11 µM | CNCCCN(C)c1cncc(-c2cccc(/C=C/C(=O)O)c2)n1 [compound 10, (E)-3-(3-{6-[Methyl-(3-methylamino-propyl)-amino]-pyrazin-2-yl}-phenyl)-acrylic acid] |
| 0.12 µM | CCNCCCNc1cncc(-c2cccc(/C=C/C(=O)O)c2)n1 [compound 11, (E)-3-{3-[6-(3-Ethylamino-propylamino)-pyrazin-2-yl]-phenyl}-acrylic acid] |
| 0.14 µM | NCCNc1cncc(-c2cccc(/C=C/C(=O)O)c2)n1 [compound 12, (E)-3-{3-[6-(2-Amino-ethylamino)-pyrazin-2-yl]-phenyl}-acrylic acid] |
| 0.24 µM | CNCCN(C)c1cncc(-c2cccc(/C=C/C(=O)O)c2)n1 [compound 13, (E)-3-(3-{6-[Methyl-(2-methylamino-ethyl)-amino]-pyrazin-2-yl}-phenyl)-acrylic acid] |
| 0.37 µM | CN(C)CCCN(C)c1cncc(-c2cccc(/C=C/C(=O)O)c2)n1 [compound 14, (E)-3-(3-{6-[(3-Dimethylamino-propyl)-methyl-amino]-pyrazin-2-yl}-phenyl)-acrylic acid] |
| 0.084 µM | NC(=O)CNc1cncc(-c2cccc(/C=C/C(=O)O)c2)n1 [compound 15, (E)-3-{3-[6-(Carbamoylmethyl-amino)-pyrazin-2-yl]-phenyl}-acrylic acid] |
| 0.25 µM | NC(=O)CCNc1cncc(-c2cccc(/C=C/C(=O)O)c2)n1 [compound 16, (E)-3-{3-[6-(2-Carbamoyl-ethylamino)-pyrazin-2-yl]-phenyl}-acrylic acid] |
| 0.3 µM | O=C(O)/C=C/c1cccc(-c2cncc(NCCO)n2)c1 [compound 17, (E)-3-{3-[6-(2-Hydroxy-ethylamino)-pyrazin-2-yl]-phenyl}-acrylic acid] |
| 0.31 µM | O=C(O)/C=C/c1cccc(-c2cncc(NCCCO)n2)c1 [compound 18, (E)-3-{3-[6-(3-Hydroxy-propylamino)-pyrazin-2-yl]-phenyl}-acrylic acid] |
| 0.48 µM | COCCCNc1cncc(-c2cccc(/C=C/C(=O)O)c2)n1 [compound 19, (E)-3-{3-[6-(3-Methoxy-propylamino)-pyrazin-2-yl]-phenyl}-acrylic acid] |

| IC50 | SMILES |
| --- | --- |
| 1.2 µM | COCCNc1cncc(-c2cccc(/C=C/C(=O)O)c2)n1 [compound 20, (E)-3-{3-[6-(2-Methoxy-ethylamino)-pyrazin-2-yl]-phenyl}-acrylic acid] |
| 1.02 µM | CC(=O)NCCNc1cncc(-c2cccc(/C=C/C(=O)O)c2)n1 [compound 21, (E)-3-{3-[6-(2-Acetylamino-ethylamino)-pyrazin-2-yl]-phenyl}-acrylic acid] |
| 0.021 µM | NCC1CCN(c2cncc(-c3cccc(/C=C/C(=O)O)c3)n2)CC1 [compound 22, (E)-3-{3-[6-(4-Aminomethyl-piperidin-1-yl)-pyrazin-2-yl]-phenyl}-acrylic acid] |
| 0.072 µM | CN(C)C1CCN(c2cncc(-c3cccc(/C=C/C(=O)O)c3)n2)CC1 [compound 24, (E)-3-{3-[6-(4-Dimethylamino-piperidin-1-yl)-pyrazin-2-yl]-phenyl}-acrylic acid] |
| 0.115 µM | NC1CCN(c2cncc(-c3cccc(/C=C/C(=O)O)c3)n2)CC1 [compound 25, (E)-3-{3-[6-(4-Amino-piperidin-1-yl)-pyrazin-2-yl]-phenyl}-acrylic acid] |
| 0.15 µM | CN1CCN(c2cncc(-c3cccc(/C=C/C(=O)O)c3)n2)CC1 [compound 26, (E)-3-[3-(4-Methyl-3,4,5,6-tetrahydro-2H-[1,2′]bipyrazinyl-6′-yl)-phenyl]-acrylic acid] |
| 0.185 µM | O=C(O)/C=C/c1cccc(-c2cncc(N3CCCNCC3)n2)c1 [compound 27, (E)-3-[3-(6-[1,4]Diazepan-1-yl-pyrazin-2-yl)-phenyl]-acrylic acid] |
| 0.2 µM | O=C(O)/C=C/c1cccc(-c2cncc(N3CCNCC3)n2)c1 [compound 28, (E)-3-[3-(3,4,5,6-Tetrahydro-2H-[1,2′]bipyrazinyl-6′-yl)-phenyl]-acrylic acid] |
| 0.23 µM | O=C(O)/C=C/c1cccc(-c2cncc(N3CCCN(Cc4ccccc4)CC3)n2)c1 [compound 29, (E)-3-{3-[6-(4-Benzyl-[1,4]diazepan-1-yl)-pyrazin-2-yl]-phenyl}-acrylic acid] |
| 0.27 µM | CN(C)C1CCN(c2cncc(-c3cccc(/C=C/C(=O)O)c3)n2)C1 (stereo not drawn) [compound 30, (E)-3-{3-[6-(3-Dimethylamino-pyrrolidin-1-yl)-pyrazin-2-yl]-phenyl}-acrylic acid] |
| 0.88 µM | CC(=O)N1CCCN(c2cncc(-c3cccc(/C=C/C(=O)O)c3)n2)CC1 [compound 31, (E)-3-{3-[6-(4-Acetyl-[1,4]diazepan-1-yl)-pyrazin-2-yl]-phenyl}-acrylic acid] |
| 1.05 µM | O=C(O)/C=C/c1cccc(-c2cncc(N3CCC(O)CC3)n2)c1 [compound 32, (E)-3-{3-[6-(4-Hydroxy-piperidin-1-yl)-pyrazin-2-yl]-phenyl}-acrylic acid] |
| 2.1 µM | O=C(O)/C=C/c1cccc(-c2cncc(N3CCC(CO)CC3)n2)c1 [compound 33, (E)-3-{3-[6-(4-Hydroxymethyl-piperidin-1-yl)-pyrazin-2-yl]-phenyl}-acrylic acid] |
| 1.7 µM | O=C(O)/C=C/c1cccc(-c2cncc(N3CCOCC3)n2)c1 [compound 34, (E)-3-[3-(6-Morpholin-4-yl-pyrazin-2-yl)-phenyl]-acrylic acid] |
| 3.3 µM | O=C(O)/C=C/c1cccc(-c2cncc(N3CCCCCC3)n2)c1 [compound 35, (E)-3-[3-(6-Azepan-1-yl-pyrazin-2-yl)-phenyl]-acrylic acid] |
| 0.046 µM | CN1CCCN(c2cccc(-c3cccc(/C=C/C(=O)O)c3)n2)CC1 [compound 36, (E)-3-{3-[6-(4-Methyl-[1,4]diazepan-1-yl)-pyridin-2-yl]-phenyl}-acrylic acid] |
